Source: ChEMBL document CHEMBL5131569, “SAGE-718: A First-in-Class N-Methyl-d-Aspartate Receptor Positive Allosteric Modulator for the Potential Treatment of Cognitive Impairment” (J Med Chem, 2022)
pIC50: −log10 of the molar value.

Key:
[1] = Metabolic stability in rat hepatocytes assessed as clearance at 10 uM measured upto 120 mins by LC-MS/MS analysis; type: ADME, cell-based, Hepatocyte; conditions: 2 h
[2] = molecular target: Cytochrome P450 2C9 (Homo sapiens, UniProt P11712); test: Inhibition of CYP2C9 (unknown origin); type: ADME
[3] = in vivo; conditions: CD-1, mouse, brain and plasma
Description: Ratio of AUC(0 to 72 hrs) in CD-1 mouse brain to plasma by LC-MS/MS analysis

Cytochrome P450 2C9, sequence (P11712 whole entry): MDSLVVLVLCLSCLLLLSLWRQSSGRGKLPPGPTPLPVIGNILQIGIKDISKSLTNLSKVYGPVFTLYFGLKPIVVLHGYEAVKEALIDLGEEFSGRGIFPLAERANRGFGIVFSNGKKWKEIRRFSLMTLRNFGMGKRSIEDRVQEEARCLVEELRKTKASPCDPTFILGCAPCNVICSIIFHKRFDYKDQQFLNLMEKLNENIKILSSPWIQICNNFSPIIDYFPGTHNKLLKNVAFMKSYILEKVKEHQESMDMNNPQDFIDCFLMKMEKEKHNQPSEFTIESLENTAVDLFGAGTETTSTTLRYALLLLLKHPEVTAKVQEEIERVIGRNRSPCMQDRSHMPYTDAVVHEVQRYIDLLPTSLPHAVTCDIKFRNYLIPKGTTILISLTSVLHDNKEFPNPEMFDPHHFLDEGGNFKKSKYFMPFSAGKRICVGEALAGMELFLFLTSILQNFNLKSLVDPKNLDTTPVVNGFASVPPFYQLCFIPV

CLH [1]: 18.3 mL/min/kg | pIC50 [2]: < 4.00 | Kp [3]: 1.8
SMILES: C[C@H](CC[C@](C)(O)C(F)(F)F)[C@H]1CC[C@H]2[C@@H]3CC=C4C[C@@](C)(O)CC[C@]4(C)[C@H]3CC[C@]12C [DALZANEMDOR]
